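The concentration for 50% growth inhibition is given as GI50. The concentration for full growth arrest is given as TGI.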
What was measured:
Assay in all cases: inhibition of tumour cell growth, NCI panel, 384-well format
SK-MEL-28 melanoma = tested on: SK-MEL-28 melanoma
NCI-H522 lung = tested on: NCI-H522 lung
TK-10 renal = tested on: TK-10 renal
COLO 205 colon = tested on: COLO 205 colon
NCI-H226 lung = tested on: NCI-H226 lung
MOLT-4 leukemia = tested on: MOLT-4 leukemia
SNB-19 CNS = tested on: SNB-19 CNS
M14 melanoma = tested on: M14 melanoma
HCC-2998 colon = tested on: HCC-2998 colon
SR leukemia = tested on: SR leukemia
K-562 leukemia = tested on: K-562 leukemia
EKVX NSCLC = tested on: EKVX NSCLC
RXF 393 renal = tested on: RXF 393 renal

SMILES: C=CC(=O)Nc1cc(C)ccc1Nc1nc(Nc2cc(OC)ncc2C)ncc1C(F)(F)F
- GI50 (SK-MEL-28 melanoma): 86.6 nM
- TGI (SK-MEL-28 melanoma): 387 nM
- GI50 (NCI-H522 lung): 310 nM
- TGI (NCI-H522 lung): 1480 nM
- GI50 (TK-10 renal): 328 nM
- TGI (TK-10 renal): 884 nM
- GI50 (COLO 205 colon): 75.3 nM
- TGI (COLO 205 colon): 1120 nM
- GI50 (NCI-H226 lung): 228 nM
- TGI (NCI-H226 lung): 1810 nM
- GI50 (MOLT-4 leukemia): 879 nM
- TGI (MOLT-4 leukemia): 2150 nM
- GI50 (SNB-19 CNS): 786 nM
- TGI (SNB-19 CNS): 3430 nM
- GI50 (M14 melanoma): 35.5 nM
- TGI (M14 melanoma): 194 nM
- GI50 (HCC-2998 colon): 123 nM
- TGI (HCC-2998 colon): 376 nM
- GI50 (SR leukemia): 1790 nM
- TGI (SR leukemia): 3180 nM
- GI50 (K-562 leukemia): 1520 nM
- TGI (K-562 leukemia): > 100000 nM
- GI50 (EKVX NSCLC): 300 nM
- TGI (EKVX NSCLC): 1620 nM
- GI50 (RXF 393 renal): 215 nM
- TGI (RXF 393 renal): 766 nM
